Laboratory results as given in US9428519B2, “Acylated derivative of homoharringtonine, preparation method therefor, and application thereof” (HANGZHOU BENSHENG PHARMACEUTICAL CO., LTD., priority 2011, dated 2016).
In brackets after ≈: the same amount, converted by molar mass. Entries after “also recorded” stand apart in the source; their conditions may differ.

Tests used:
[1] = test system: MGC-803 transplanted tumor of gastric cancer; assay: Inhibition of transplanted tumor of gastric cancer in BALB/c-nu nude mice; format: in vivo; conditions: for Mass of tumor / Tumor Inhibition rate (%): MGC-803 in BALB/c-nu nude mice, 10 days, Day 27
Experimental: Gastric cancer cell lines: MGC-803
Animal: BALB/c-nu nude mice, 8 weeks, female, purchased from Shanghai Laboratory Animal Center of Chinese Academy of Sciences, China.
BS-HH-002, wherein BS-HH-002-0.1 indicates a dosage of 0.1 mg/kg each time, BS-HH-002-0.3 indicates a dosage of 0.3 mg/kg each time, BS-HH-002-0.5 indicates a dosage of 0.5 mg/kg each time, and BS-HH-002-1.0 indicates a dosage of 1.0 mg/kg each time.
Under sterile conditions, the above tumor cells in logarithmic growth phase are collected and injected in an amount of 2×10^7/0.2 ml/nude mice (cell viability>95%) into the right subaxillary of the nude mice by subcutaneous injection, thus establishing a BALB/c-nu nude mice model bearing transplanted tumor of gastric cancer. The mice are administered on the third day after the inoculation, wherein the experimental groups are intragastrically administered in an experimentally designed amount, and the negative control group is intragastrically administered with sterile water. Administration takes place at 8:00 for one time a day, at 8:00 and 14:00 for twice a day, and at 8:00, 14:00 and 20:00 with 6-hour intervals for three times day. The administrations are successive for 10 days. The day before administration is Day 0 and the weight and tumor size are determined approximately every 5 days to produce a plot on weight and tumor growth. On Day 27, the mice are dissected and the tumors are taken out and weighed. Based on a tumor inhibition rate of zero for the control group, the tumor inhibition rate (%) after the effect of the medicament is calculated.
(§1) The values determined are presented as mean±standard error (M±SD). The experimental data for each group are analyzed by the One-way ANOVA method of SPSS 18.0 Statistical Software, and p<0.05 is deemed as having statistically significant difference.

[2] = test system: Kasumi-1 (acute myeloid leukemia M2 type, AML-M2); assay: MTT growth inhibition of leukemia cells, 72 h; format: cell-based, human
Procedure, shortened: (§2)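 Untreated control set to 100% viability; IC50 computed from MTT signal of cells given a range of compound concentrations for 72 h. Culture: 6000 cells/well, 10% FBS 1640 medium, 37 °C, 5% CO2.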

[3] = test system: K562/adr (drug-resistant, chronic myeloid leukemia, CML); assay: MTT growth inhibition of leukemia cells, 72 h; format: cell-based, human
Procedure, shortened: as §2

[4] = test system: Jurkat (acute lymphoblastic leukemia, ALL); assay: MTT growth inhibition of leukemia cells, 72 h; format: cell-based, human; conditions: Homo sapiens, Jurkat
Procedure, shortened: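 Jurkat human acute lymphoblastic leukemia cells were seeded at 6000 cells per well in 96-well plates containing 1640 medium with 10% fetal bovine serum. Test compounds were added across a range of concentrations, and plates were held at 37° C. in 5% CO2 for 72 hours before viable cells were quantified by MTT.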

[5] = test system: H9 (acute lymphoblastic leukemia, ALL); assay: MTT growth inhibition of leukemia cells, 72 h; format: cell-based, human
Procedure, shortened: as §2

[6] = test system: NB4 (acute promyelocytic leukemia, AML); assay: MTT growth inhibition of leukemia cells, 72 h; format: cell-based, human
Procedure, shortened: as §2

[7] = Body weight and toxicity in tumor-bearing NOD/SCID mice; format: in vivo; conditions: for Weight (g) Final / Weight (g) Initial: three times a day, 10 days; for Weight (g) Initial: initial (Day 0)
Experimental: (§3) Animal: NOD/SCID mice (multiple immunodeficiency mice), 8 weeks, female, purchased from Shanghai Laboratory Animal Center of Chinese Academy of Sciences, China.
(§4) BS-HH-002, wherein BS-HH-002-0.1 indicates a dosage of 0.1 mg/kg each time, and BS-HH-002-0.3 indicates a dosage of 0.3 mg/kg each time.
(§5) Under sterile conditions, the above tumor cells in the logarithmic growth phase are collected and injected in an amount of 5×10^7/0.2 ml/mice (cell viability>95%) by subcutaneous injection into the right subaxillary of NOD/SCID mice, thus establishing an NOD/SCID mice model bearing transplanted tumor of leukemia. The mice are administered on the third day after the inoculation, wherein the experimental groups are intragastrically administered in an experimentally designed amount and the negative control group is intragastrically administered with sterile water. Each mouse is intragastrically administered three times a day in 0.4 ml each time, at 8:00, 14:00 and 20:00 with 6-hour intervals, and is successively administered for 10 days. The day before administration is Day 0 and the weight and tumor size are determined approximately every 5 days to produce a dynamic plot on weight and tumor growth. On Day 31, the mice are dissected and the tumors are taken out and weighed. The tumor inhibition rate (%) after the application of medicament is determined based on the tumor inhibition rate of the control group being zero.
as §1

[8] = test system: Kasumi-1 transplanted tumor of leukemia; assay: Inhibition of transplanted tumor of leukemia in NOD/SCID mice; format: in vivo; conditions: for Mass of tumor / Tumor Inhibition rate (%): Kasumi-1 in NOD/SCID mice, three times a day, 10 days, Day 31
Experimental: Leukemia cell lines: Kasumi-1 (acute myeloid leukemia M2 type, AML-M2)
as §3, §4, §5, §1

[9] = 0.1 mg/kg/time, 1 time/day intragastric
[10] = 0.1 mg/kg/time, 2 times/day intragastric
[11] = 0.1 mg/kg/time, 3 times/day intragastric
[12] = 0.3 mg/kg/time, 1 time/day intragastric
[13] = 0.5 mg/kg/time, 1 time/day intragastric
[14] = 0.5 mg/kg/time, 2 times/day intragastric
[15] = 0.5 mg/kg/time, 3 times/day intragastric
[16] = 1.0 mg/kg/time, 1 time/day intragastric
[17] = 1.0 mg/kg/time, 3 times/day intragastric

Question: With `COC(=O)C[C@](O)(CCCC(C)(C)OC(C)=O)C(=O)O[C@@H]1C(OC)=C[C@]23CCCN2CCc2cc4c(cc2[C@H]13)OCO4` [BS-HH-002, 6-acetylhomoharringtonine] as the molecule, how does the “tumor inhibition rate on gastric cancer” value ([1]; BALB/c-nu nude mice, all dosing regimes 0.1-1.0 mg/kg) read?
Answer: more than 40%

Question: What about the “Mass of tumor” value [1, 9] of the same molecule?
Answer: 0.40 ± 0.18 g

Question: And the “Tumor Inhibition rate (%)” value [1, 9]?
Answer: 48.97%

Question: And the “Mass of tumor” value [1, 10]?
Answer: 0.46 ± 0.11 g

Question: What about the “Tumor Inhibition rate (%)” value [1, 10] of the same molecule?
Answer: 40.90%

Question: What about the “Mass of tumor” value [1, 11] of the same molecule?
Answer: 0.41 ± 0.09 g

Question: And the “Tumor Inhibition rate (%)” value [1, 11]?
Answer: 48.14%

Question: What about the “Mass of tumor” value [1, 12] of the same molecule?
Answer: 0.38 ± 0.13 g

Question: And the “Tumor Inhibition rate (%)” value [1, 12]?
Answer: 51.76%

Question: What about the “Mass of tumor” value [1, 13] of the same molecule?
Answer: 0.44 ± 0.13 g

Question: What about the “Tumor Inhibition rate (%)” value [1, 13] of the same molecule?
Answer: 43.81%

Question: What about the “Mass of tumor” value [1, 14] of the same molecule?
Answer: 0.44 ± 0.18 g

Question: What about the “Tumor Inhibition rate (%)” value [1, 14] of the same molecule?
Answer: 43.43%

Question: And the “Mass of tumor” value [1, 15]?
Answer: 0.37 ± 0.18 g

Question: What about the “Tumor Inhibition rate (%)” value [1, 15] of the same molecule?
Answer: 52.12%

Question: And the “Mass of tumor” value [1, 16]?
Answer: 0.43 ± 0.17 g

Question: What about the “Tumor Inhibition rate (%)” value [1, 16] of the same molecule?
Answer: 44.58%

Question: And the “Mass of tumor” value [1, 17]?
Answer: 0.34 ± 0.05 g

Question: What about the “Tumor Inhibition rate (%)” value [1, 17] of the same molecule?
Answer: 56.67%

Question: And the IC50 ([2]; Homo sapiens, Kasumi 1, MTT)?
Answer: 2 ng/mL (≈ 0.0034 µM)

Question: And the IC90 ([2]; Homo sapiens, Kasumi 1, MTT)?
Answer: 7 ng/mL (≈ 0.0119 µM)

Question: And the “improvement of anti-Kasumi-1 activity compared with homoharringtonine” value ([2]; vs HHT)?
Answer: more than 3.4 fold

Question: And the IC50 ([3]; Homo sapiens, K562/Adr, MTT)?
Answer: 0.015 µg/mL (≈ 0.0255 µM)

Question: And the IC90 ([3]; Homo sapiens, K562/Adr, MTT)?
Answer: 0.31 µg/mL (≈ 0.528 µM)

Question: What about the “improvement of anti-K562/adr activity compared with homoharringtonine” value ([3]; vs HHT) of the same molecule?
Answer: more than 3.2 fold

Question: What about the IC50 [4] of the same molecule?
Answer: 3 ng/mL (≈ 0.0051 µM)

Question: What about the IC90 [4] of the same molecule?
Answer: ≥ 16 µg/mL

Question: And the IC50 ([5]; Homo sapiens, MTT)?
Answer: 4 ng/mL (≈ 0.00681 µM)

Question: And the IC90 ([5]; Homo sapiens, MTT)?
Answer: 0.01 µg/mL (≈ 0.017 µM)

Question: What about the “improvement of anti-H9 activity compared with homoharringtonine” value ([5]; vs HHT) of the same molecule?
Answer: more than 5 fold

Question: And the IC50 ([6]; Homo sapiens, MTT)?
Answer: 2 ng/mL (≈ 0.0034 µM)

Question: What about the IC90 ([6]; Homo sapiens, MTT) of the same molecule?
Answer: 6 ng/mL (≈ 0.0102 µM)

Question: And the “improvement of anti-NB4 activity compared with homoharringtonine” value ([6]; vs HHT)?
Answer: more than 3 fold

Question: And the “Weight (g) Final” value ([7]; 0.1 mg/kg/time intragastric)?
Answer: 26.7 ± 1.92 g

Question: What about the “Weight (g) Initial” value ([7]; 0.1 mg/kg/time intragastric) of the same molecule?
Answer: 21.48 ± 0.05 g

Question: What about the “Weight (g) Final” value ([7]; 0.3 mg/kg/time intragastric) of the same molecule?
Answer: 27.45 ± 2.48 g

Question: And the “Weight (g) Initial” value ([7]; 0.3 mg/kg/time intragastric)?
Answer: 22.45 ± 0.13 g

Question: What about the “toxic or side effect” value ([7]; 0.1 and 0.3 mg/kg each time) of the same molecule?
Answer: does not have any obvious toxic or side effect; also recorded: does not demonstrate an obvious toxicity

Question: And the “impact on animal weight” value ([7]; initial vs final weight)?
Answer: does not have substantial impact on animal weight

Question: What about the “Mass of tumor” value ([8]; 0.1 mg/kg/time intragastric) of the same molecule?
Answer: 1.67 ± 0.36 g

Question: What about the “Tumor Inhibition rate (%)” value ([8]; 0.1 mg/kg/time intragastric) of the same molecule?
Answer: 43.31%

Question: And the “Mass of tumor” value ([8]; 0.3 mg/kg/time intragastric)?
Answer: 1.60 ± 0.75 g

Question: What about the “Tumor Inhibition rate (%)” value ([8]; 0.3 mg/kg/time intragastric) of the same molecule?
Answer: 45.74%

Question: What about the “tumor inhibition effect on transplanted tumor of leukemia” value ([8]; NOD/SCID mice, FIG. 5 tumor growth curve) of the same molecule?
Answer: remarkable tumor inhibition effect

Question: What about the “effect on weight of the transplanted tumor of leukemia” value ([8]; NOD/SCID mice, FIG. 6) of the same molecule?
Answer: substantially reduced

Question: What about the “inhibition rate of transplanted tumor of leukemia” value ([8]; NOD/SCID mice, dosage of both 0.1 and 0.3 mg/kg) of the same molecule?
Answer: over 40%
